In US9624217B2, “Dihydropyrrolopyridine inhibitors of ROR-gamma” (Vitae Pharmaceuticals, Inc., priority 2014, dated 2017):

Key:
full-length RORγt = full-length RORγt (Homo sapiens (Human), UniProt P51449); test: RORγt 5×RORE Assay in Jurkat Cells (Assay 2); assay type: cell-based; conditions: secreted Nanoluc luciferase 5×RORE reporter, 16-18 hrs, read-out: RORγt5X IC50 Range
Procedure: [formula] RORγt 5×RORE Assay in Jurkat Cells (Assay 2)
Compounds of the present invention were tested for RORγ inverse agonist activity in a cell-based, transcriptional activity assay. […] (Promega, Cat. #N1021) using KpnI and HindIII restriction sites. […] Luciferase activity in the conditioned supernatants was determined with NanoGlo® assay reagents (Promega, Cat. #N1130).

[1] = biological target: recombinant RORγ Ligand Binding Domain (LBD) (Homo sapiens (Human), UniProt P51449); test: Radio-Ligand RORγ Binding Assay (Assay 1); conditions: SPA competition with 25-hydroxy [26,27-3H]-cholesterol, cell-free; read-out: RORγ Binding Ki Range
recombinant RORγ Ligand Binding Domain (LBD), sequence (P51449 269-508): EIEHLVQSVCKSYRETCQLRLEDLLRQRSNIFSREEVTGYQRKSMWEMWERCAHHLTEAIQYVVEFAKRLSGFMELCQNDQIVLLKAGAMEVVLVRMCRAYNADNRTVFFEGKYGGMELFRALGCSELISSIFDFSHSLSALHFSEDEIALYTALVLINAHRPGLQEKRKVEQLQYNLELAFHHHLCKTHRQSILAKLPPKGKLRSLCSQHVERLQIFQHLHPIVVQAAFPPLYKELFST
Procedure: Radio-Ligand RORγ Binding Assay (Assay 1)
Compounds of the present invention were tested for ability to bind to RORγ in a cell-free competition assay with commercially available radio-ligand (RL), 25-hydroxy [26,27-^3H]-cholesterol (PerkinElmer, Cat. #NET674250UC), for a ligand binding site on a recombinant RORγ Ligand Binding Domain (LBD) protein expressed as a 6×His-Glutathione-S-Transferase (GST) fusion. […] The plate was shaken at 700 rpm for 20 min and incubated for 10 min at rt, after which 40 μL of poly-Lys YSi SPA beads (PerkinElmer, Cat. #RPNQ0010) were added to achieve 50 μg of the beads per well. The plate was incubated on an orbital shaker for 20 min and then for 10 min without agitation at rt. SPA signal for tritium beta radiation was registered on PerkinElmer Microbeta plate reader. […] The percent inhibition vs. concentration data were fit into a four-parameter model, and IC50 values were calculated from the fit as the concentrations corresponding to the inflection points on the dose-response curves.

full-length RORγt, sequence (P51449 other isoform, or with tags, fused parts or gaps): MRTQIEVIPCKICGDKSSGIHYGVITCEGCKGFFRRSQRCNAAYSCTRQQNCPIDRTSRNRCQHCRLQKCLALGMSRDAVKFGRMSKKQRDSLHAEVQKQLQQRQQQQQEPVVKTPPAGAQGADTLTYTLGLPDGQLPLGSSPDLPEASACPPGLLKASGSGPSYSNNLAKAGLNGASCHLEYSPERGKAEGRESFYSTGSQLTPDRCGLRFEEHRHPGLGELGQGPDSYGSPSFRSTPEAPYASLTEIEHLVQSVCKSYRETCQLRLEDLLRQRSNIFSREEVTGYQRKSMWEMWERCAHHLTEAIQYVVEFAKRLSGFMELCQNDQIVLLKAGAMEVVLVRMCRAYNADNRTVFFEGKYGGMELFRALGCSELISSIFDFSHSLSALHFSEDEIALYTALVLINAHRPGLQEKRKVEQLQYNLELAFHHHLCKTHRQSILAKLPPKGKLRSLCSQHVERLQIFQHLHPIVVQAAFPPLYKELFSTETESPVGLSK

Row | Structure (SMILES) | IC50 (full-length RORγt) | Ki [1]
1 | CCS(=O)(=O)c1ccc(CNC(=O)c2cnc3c(c2)CN(Cc2ccc(C#N)cc2)[C@H]3C(C)C)cc1 [Compound 4] | < 100 nM | < 100 nM
2 | CCS(=O)(=O)c1ccc(CNC(=O)c2cnc3c(c2)CN(Cc2ccc(OC(F)F)cc2)[C@H]3C(C)C)cc1 [Compound 5] | < 100 nM | < 100 nM
3 | CCS(=O)(=O)c1ccc(CNC(=O)c2cnc3c(c2)CN(c2ncc(C(F)(F)F)cn2)[C@H]3C(C)C)cc1 [Compound 8] | > 1000 nM | < 100 nM
4 | CCS(=O)(=O)c1ccc(CNC(=O)c2cnc3c(c2)CN(C(=O)OC(C)(C)C)[C@H]3C(C)C)cc1 [Compound 15, tert-butyl (S)-3-((4-(ethylsulfonyl)benzyl)carbamoyl)-7-isopropyl-5,7-dihydro-6H-pyrrolo[3,4-b]pyridine-6-carboxylate] | > 1000 nM | –
5 | CC(C)[C@H]1c2ncc(C(=O)NCc3ccc(S(C)(=O)=O)cc3)cc2CN1Cc1ccc(Cl)cc1 [Compound 17] | < 100 nM | < 100 nM
6 | CC(C)[C@H]1c2ncc(C(=O)NCc3ccc(S(C)(=O)=O)cc3)cc2CN1Cc1ccc(C(F)(F)F)cc1 [Compound 22] | < 100 nM | < 100 nM
7 | CCS(=O)(=O)c1ccc(CNC(=O)c2cnc3c(c2)CN(C(=O)OCc2ccc(Cl)cc2)[C@H]3C(C)C)cc1 [Compound 25] | > 1000 nM | < 100 nM
8 | CCS(=O)(=O)c1ccc(CNC(=O)c2cnc3c(c2)[C@@H](C)N(Cc2ccc(Cl)cc2)[C@H]3C(C)C)cc1 [Compound 28] | < 100 nM | < 100 nM
9 | CCS(=O)(=O)c1ccc(CNC(=O)c2cnc3c(c2)[C@H](C)N(Cc2ccc(Cl)cc2)[C@H]3C(C)C)cc1 [Compound 29] | < 100 nM | < 100 nM
10 | CCS(=O)(=O)c1ccc(CNC(=O)c2cnc3c(c2)[C@@H](C)N(Cc2ccc(C(F)(F)F)cc2)[C@H]3C(C)C)cc1 [Compound 30] | < 100 nM | < 100 nM
11 | CCS(=O)(=O)c1ccc(CNC(=O)c2cnc3c(c2)[C@H](C)N(Cc2ccc(C(F)(F)F)cc2)[C@H]3C(C)C)cc1 [Compound 31] | < 100 nM | < 100 nM
12 | CCS(=O)(=O)c1ccc(CNC(=O)c2cnc3c(c2)CN(Cc2ccc(C(F)(F)F)cc2)[C@H]3C(C)C)nc1 [Compound 33] | < 100 nM | < 100 nM
13 | CCS(=O)(=O)c1ccc(CNC(=O)c2cnc3c(c2)CN(Cc2ccc(Cl)cc2)[C@H]3C(C)C)nc1 [Compound 34] | < 100 nM | < 100 nM
14 | CCS(=O)(=O)c1ccc(CNC(=O)c2cnc3c(c2)CN(Cc2ccc(C#N)cc2)[C@H]3C(C)C)nc1 [Compound 35] | 100 to 1000 nM | < 100 nM
15 | CCS(=O)(=O)c1ccc(CNC(=O)c2cnc3c(c2)CN(C[C@H]2CC[C@H](OC)CC2)[C@H]3C(C)C)cc1 [Compound 45] | < 100 nM | < 100 nM
16 | CCS(=O)(=O)c1ccc(CC(=O)Nc2cnc3c(c2)CN(Cc2ccc(Cl)cc2)[C@H]3C(C)C)cc1 [Compound 56] | 100 to 1000 nM | –

Row | Structure (SMILES) | IC50 (full-length RORγt) | Ki [1]
17 | CCS(=O)(=O)c1ccc(CC(=O)Nc2cnc3c(c2)CN(Cc2ccc(C(F)(F)F)cc2)[C@H]3C(C)C)cc1 [Compound 58] | < 100 nM | < 100 nM
18 | CC(C)[C@H]1c2ncc(C(=O)N[C@H]3c4ccccc4C[C@H]3O)cc2CN1Cc1ccc(C(F)(F)F)cc1 [Compound 131] | – | 100 to 1000 nM
19 | CC(C)[C@H]1c2ncc(C(=O)N[C@H]3c4ccccc4C[C@H]3O)cc2CN1Cc1ccc(C(F)(F)F)cc1 [Compound 132] | – | 100 to 1000 nM
20 | CC(C)[C@H]1c2ncc(C(=O)NC(Cc3cc(=O)[nH]c4ccccc34)C(=O)O)cc2CN1Cc1ccc(C(F)(F)F)cc1 (stereo partly shown) [Compound 136] | – | > 1000 nM
21 | COC(=O)CC1(CNC(=O)c2cnc3c(c2)CN(Cc2ccc(C(F)(F)F)cc2)[C@H]3C(C)C)CCCCC1 [Compound 137] | – | > 1000 nM
22 | CC(C)[C@H]1c2ncc(C(=O)NC(Cc3ccc(F)cc3)C(=O)O)cc2CN1Cc1ccc(C(F)(F)F)cc1 (stereo partly shown) [Compound 138] | – | > 1000 nM
23 | CC(C)[C@H]1c2ncc(C(=O)NC(CC(=O)O)c3ccc(Br)cc3)cc2CN1Cc1ccc(C(F)(F)F)cc1 (stereo partly shown) [Compound 140] | – | > 1000 nM
24 | CC(C)[C@H]1c2ncc(C(=O)NCC3(CC(=O)O)CCCCC3)cc2CN1Cc1ccc(C(F)(F)F)cc1 [Compound 145] | – | > 1000 nM
25 | CC(C)[C@H]1c2ncc(C(=O)NCc3ccc(C(=O)O)cc3)cc2CN1Cc1ccc(C(F)(F)F)cc1 [Compound 147, (S)-4-((7-isopropyl-6-(4-(trifluoromethyl)benzyl)-6,7-dihydro-5H-pyrrolo[3,4-b]pyridine-3-carboxamido)methyl)benzoic acid] | – | 100 to 1000 nM
26 | CC(C)[C@H]1c2ncc(C(=O)NC[C@H]3CC[C@H](C(=O)O)CC3)cc2CN1Cc1ccc(C(F)(F)F)cc1 [Compound 148] | – | > 1000 nM
27 | CC(C)[C@H]1c2ncc(C(=O)NCCC3CN(S(C)(=O)=O)C3)cc2CN1Cc1ccc(C(F)(F)F)cc1 [Compound 152] | – | > 1000 nM
28 | CC(C)[C@H]1c2ncc(C(=O)NCC3CN(S(C)(=O)=O)C3)cc2CN1Cc1ccc(C(F)(F)F)cc1 [Compound 153] | – | > 1000 nM
29 | CC(C)[C@H]1c2ncc(C(=O)NCC3CCN(S(C)(=O)=O)C3)cc2CN1Cc1ccc(C(F)(F)F)cc1 (stereo partly shown) [Compound 154] | – | > 1000 nM
30 | CC(C)[C@H]1c2ncc(C(=O)NC[C@@H]3CCN(C(=O)OC(C)(C)C)C[C@H]3O)cc2CN1Cc1ccc(C(F)(F)F)cc1 [Compound 156] | – | > 1000 nM
31 | CC(=O)O[C@@H]1CN(C(C)=O)CC[C@H]1CNC(=O)c1cnc2c(c1)CN(Cc1ccc(C(F)(F)F)cc1)[C@H]2C(C)C [Compound 157] | – | > 1000 nM
32 | CCS(=O)(=O)c1ccc(CNC(=O)c2cnc3c(c2)CN(Cc2ccc(C(F)(F)F)cc2)[C@H]3C(C)C)nn1 [Compound 159] | – | < 100 nM

More lines, now with the values ahead:

Row | IC50 (full-length RORγt) | Ki [1] | Structure (SMILES)
33 | < 100 nM | < 100 nM | CCS(=O)(=O)c1ccc(CNC(=O)c2cnc3c(c2)CN(Cc2ccc(Cl)cc2)[C@H]3C(C)C)cc1 [Compound 3]
34 | 100 to 1000 nM | < 100 nM | CCS(=O)(=O)c1ccc(CNC(=O)c2cnc3c(c2)CN(Cc2ccc(F)cc2)[C@H]3C(C)C)cc1 [Compound 7]
35 | > 1000 nM | < 100 nM | CCOC(=O)c1cnc(N2Cc3cc(C(=O)NCc4ccc(S(=O)(=O)CC)cc4)cnc3[C@@H]2C(C)C)nc1C(F)(F)F [Compound 10]
36 | > 1000 nM | 100 to 1000 nM | CCS(=O)(=O)c1ccc(CNC(=O)c2cnc3c(c2)C(=O)N(Cc2ccc(Cl)cc2)C3(O)C(C)C)cc1 (stereo not shown) [Compound 11]
37 | 100 to 1000 nM | 100 to 1000 nM | CC(C)[C@H]1c2ncc(C(=O)NCc3ccc(S(C)(=O)=O)cc3)cc2CN1Cc1ccc(C#N)cc1 [Compound 21]
38 | > 1000 nM | < 100 nM | CC(C)[C@H]1c2ncc(C(=O)NCc3ccc(S(C)(=O)=O)cc3)cc2CN1Cc1ccc(F)cc1 [Compound 24]
39 | > 1000 nM | < 100 nM | CCS(=O)(=O)c1ccc(CNC(=O)c2cnc3c(c2)CN(CC2CCC(F)(F)CC2)[C@H]3C(C)C)cc1 [Compound 42]
40 | > 1000 nM | < 100 nM | CCS(=O)(=O)c1ccc(CNC(=O)c2cnc3c(c2)CN(CC2CCC(F)(F)CC2)[C@H]3C(C)C)nc1 [Compound 43]
41 | > 1000 nM | < 100 nM | CCS(=O)(=O)c1ccc(CNC(=O)c2cnc3c(c2)CN(C(=O)OC(C)(C)C)[C@H]3C(C)C)nc1 [Compound 46, Tert-butyl (S)-3-(((5-(ethylsulfonyl)pyridin-2-yl)methyl)carbamoyl)-7-isopropyl-5,7-dihydro-6H-pyrrolo[3,4-b]pyridine-6-carboxylate]
42 | < 100 nM | < 100 nM | CCS(=O)(=O)c1ccc(CNC(=O)c2cnc3c(c2)CN(CC2CCN(CC(F)(F)F)CC2)[C@H]3C(C)C)cc1 [Compound 49]
43 | < 100 nM | < 100 nM | CCS(=O)(=O)c1ccc(CNC(=O)c2cnc3c(c2)CN(Cc2ccc4c(c2)OC(F)(F)O4)[C@H]3C(C)C)nc1 [Compound 54]
44 | < 100 nM | < 100 nM | CCS(=O)(=O)c1ccc(CC(=O)Nc2cnc3c(c2)CN(C[C@H]2CC[C@H](C(F)(F)F)CC2)[C@H]3C(C)C)cc1 [Compound 55]
45 | < 100 nM | < 100 nM | CCS(=O)(=O)c1ccc(CC(=O)Nc2cnc3c(c2)CN(Cc2ccc(C#N)cc2)[C@H]3C(C)C)cc1 [Compound 57]
46 | – | > 1000 nM | COC(=O)C1(CNC(=O)c2cnc3c(c2)CN(Cc2ccc(C(F)(F)F)cc2)[C@H]3C(C)C)CCOCC1 [Compound 134]
47 | – | > 1000 nM | COC(=O)C(Cc1cc(=O)[nH]c2ccccc12)NC(=O)c1cnc2c(c1)CN(Cc1ccc(C(F)(F)F)cc1)[C@H]2C(C)C (stereo partly shown) [Compound 135]
48 | – | > 1000 nM | CC(C)[C@H]1c2ncc(C(=O)NCC3(C(=O)O)CCOCC3)cc2CN1Cc1ccc(C(F)(F)F)cc1 [Compound 146]
49 | – | > 1000 nM | COC(=O)c1ccc(CNC(=O)c2cnc3c(c2)CN(Cc2ccc(C(F)(F)F)cc2)[C@H]3C(C)C)nc1 [Compound 150]
50 | – | 100 to 1000 nM | CC(C)[C@H]1c2ncc(C(=O)NCc3ccc(C(=O)O)cn3)cc2CN1Cc1ccc(C(F)(F)F)cc1 [Compound 151]
51 | – | 100 to 1000 nM | CC(C)[C@H]1c2ncc(C(=O)N[C@H](CO)c3ccc(C#N)cc3)cc2CN1Cc1ccc(C(F)(F)F)cc1 [Compound 158]
